biological target: T1, CRF receptor (Rattus norvegicus, UniProt P35353); assay: In vitro CRF receptor binding assay (competition with [125I] ovine CRF, rat cortex membranes); conditions: competition with [125I] ovine CRF, 2 h at 22° C.; Ki classes; read-out: Inhibition Ki
T1 construct: 100 μl of membrane suspension as prepared above to give a total reaction volume of 300 μl; from tissue; host or cells: rat cerebral cortex membrane homogenate
T1 sequence (P35353 24-415): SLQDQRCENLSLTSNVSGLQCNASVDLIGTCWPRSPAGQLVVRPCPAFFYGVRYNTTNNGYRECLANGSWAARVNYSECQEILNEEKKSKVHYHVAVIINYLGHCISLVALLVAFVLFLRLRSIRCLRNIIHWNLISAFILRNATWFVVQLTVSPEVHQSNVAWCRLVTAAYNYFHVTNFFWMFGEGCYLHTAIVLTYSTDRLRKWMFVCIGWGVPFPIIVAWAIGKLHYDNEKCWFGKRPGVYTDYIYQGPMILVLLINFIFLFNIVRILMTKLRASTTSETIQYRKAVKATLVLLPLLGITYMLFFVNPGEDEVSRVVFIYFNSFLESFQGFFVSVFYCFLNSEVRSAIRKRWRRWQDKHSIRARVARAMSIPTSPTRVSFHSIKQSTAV
Description: In vitro Receptor Binding Assay
Tissue Preparation: Male Sprague Dawley rats (180-200 g) were sacrificed by decapitation and the cortex was dissected on ice, frozen whole in liquid nitrogen and stored at −70° C. until use. On the day of assay, frozen tissue was weighed and homogenized in 20 volumes of ice cold buffer containing 50 mM Tris, 10 mM MgCl2, 2 mM EGTA, pH 7.0 at 22° C. using a Polytron (Brinkmann Instruments, Westbury, N.Y.; setting 6) for 20 s. The homogenate was centrifuged at 48,000× g for 10 min at 4° C. The supernatant was discarded, and the pellet was re-homogenized in the same volume of buffer and centrifuged at 48,000× g for 10 min at 4° C. The resulting pellet was resuspended in the above buffer to a final concentration of 20-40 mg original wet weight/mL and used in the assays described below.
CRF Receptor Binding: Receptor binding assays were carried out essentially as described by E. B. De Souza, J. Neurosci. […]
All assays were carried out at equilibrium for 2 h at 22° C. as described by E. B. De Souza, J. Neurosci. […] The reaction was terminated by centrifugation of the tubes in a Beckman microfuge for 5 min at 12,000× g. Aliquots of the supernatant were collected to determine the “free” radioligand concentration. The remaining supernatant was aspirated and the pellets washed gently with ice-cold PBS plus 0.01% Triton X-100; centrifuged again and monitored for bound radioactivity as described above. […] This program has the distinct advantage of fitting the raw experimental data on an untransformed coordinate system where errors are most likely to be normally distributed and uncorrelated with the independent variable. […] The parameters for the affinity constants (KD) and receptor densities (Bmax) are also provided along with statistics on the general “fit” of the estimated parameters to the raw data.
Competition Curve Analysis
The resulting pellets were surface washed twice by centrifugation with 1 mL of ice-cold phosphate buffered saline and 0.01% Triton X-100; the supernatants discarded and the pellets monitored for radioactivity at approximately 80% efficiency. The level of non-specific binding was defined in the presence of […] unlabeled rat/humanCRF (r/hCRF). Data from competition curves were analyzed by the program LIGAND. […] Routinely, the data were analyzed using a one- and two-site model comparing the “goodness of fit” between the models in order to accurately determine the Ki. Statistical analyses provided by LIGAND allowed the determination of whether a single-site or multiple-site model should be used.
In Table 17; the Ki values were determined using the assay conditions described above.

Ki, < 500 nM:
CCN(c1nc(C)cc(N2CCOCC2)n1)c1ccc(C(C)C)cc1Br [compound 16, N-(2-bromo-4-(1-methylethyl)phenyl)-N-ethyl-4-morpholino-6-methyl-2-pymidinamine]
CCN(c1nc(C)cc(CN2CCOCC2)n1)c1ccc(C(C)C)cc1Br [compound 59, N-(2-bromo-4-(1-methylethyl)phenyl)-N-ethyl-6-methyl-4-(4-morpholinylmethyl)-2-pyrmidinamine]
CCN(c1nc(C)cc(C(=O)OC)n1)c1ccc(C(C)C)cc1Br [compound 61, Methyl 2-((2-bromo-4-(1-methylethyl)phenyl)ethylamino)-6-methyl-4-pyrimidinecarboxylate]

Ki, 2000 to 10000 nM:
CCN(c1nc(C)cc(C(=O)N2CCN(C)CC2)n1)c1ccc(C(C)C)cc1Br [compound 63, N-(2-bromo-4-(1-methylethyl)phenyl)-N-ethyl-4-methyl-6-(4-methylpiperazinylcarbonyl)-2-pyrimidinamine]
CCN(c1nc(C)cc(C)n1)c1ccc(C(C)C)cc1OC [compound 65, N-ethyl-N-(2-methoxy4-(1-methylethyl)phenyl)4,6-dimethyl-2-pyimidinamine]

same assay, conditions: read-out: Inhibition Ki

Ki, 501 to 2000 nM:
Cc1ccc(N(C)c2nc(C)cc(C)n2)c(Br)c1 [compound 1, N-(2-bromo-4-methylphenyl)-N-methyl-4,6-dimethyl-2-pymidinamine]
COc1ccc(N(C)c2nc(C)cc(C)n2)c(OC)c1 [compound 2]
C=CCN(c1nc(C)cc(C)n1)c1ccccc1Br [compound 3]
CCN(c1nc(C)cc(C)n1)c1ccc(C2CCCCC2)cc1Br [compound 22]
CCCCc1ccc(N(CC)c2nc(CC)cc(CC)n2)c(Br)c1 [compound 24]
CCN(c1nc(C)cc(C)n1)c1c(OC)cc(C)cc1OC [compound 51]
CCN(c1cc(OC)nc(OC)n1)c1ccc(C(C)C)cc1Br [compound 130]
CCN(c1nc(C)nc(C)n1)c1ccc(C(C)C)cc1Br [compound 133]

Ki, < 500 nM:
Cc1cc(-c2ccccc2)c2c(C#N)cn(-c3ccc(C(C)C)cc3Br)c2n1 [Example 256]
Cc1cc(C)c2ccn(-c3ccc(C(C)C)cc3Br)c2n1 [Example 257]
Cc1cc(Cl)c2ccn(-c3ccc(C(C)C)cc3Br)c2n1 [Example 259]
Cc1cc(-c2ccccc2)c2ccn(-c3ccc(C(C)C)cc3Br)c2n1 [Example 261]
Cc1cc(Cl)nc2c1ccn2-c1ccc(C(C)C)cc1Br [Example 263]
Cc1cc(C)nc(N(C)c2ccc(C(C)C)cc2Br)n1 [compound 4, N-(2-bromo-4-(1-methylethyl)phenyl)-N-methyl-4,6-dimethyl-2-pymidinamine]
CCc1ccc(N(C)c2nc(C)cc(C)n2)c(Br)c1 [compound 9, N-(2-bromo-4-ethylphenyl)-N-methyl-4,6-dimethyl-2-pypimidinamine]
Cc1cc(C)nc(N(C)c2ccc(C(C)(C)C)cc2Br)n1 [compound 11]
C=CCN(c1nc(C)cc(N2CCOCC2)n1)c1ccc(C(C)C)cc1Br [compound 17]
CCCCc1ccc(N(CC)c2nc(C)cc(C)n2)c(Br)c1 [compound 19]
CCN(c1nc(C)cc(C)n1)c1ccc(C(C)C)cc1Br [compound 21, N-(2-bromo-4-(1-methylethyl)phenyl)-N-ethyl-4,6dimethyl-2-pyrimidinamine]
CCN(c1nc(C)cc(-c2cccs2)n1)c1ccc(C(C)C)cc1Br [compound 31, N-(2-Bromo-4-(1-methylethyl)phenyl)-N-ethyl-6-methyl-4-(2-thienyl)-2-pyrimidinamine]
Cc1cc(C)nc(N(CC#N)c2ccc(C(C)C)cc2Br)n1 [compound 32]
Cc1cc(C)nc(N(CC2CC2)c2ccc(C(C)C)cc2Br)n1 [compound 33]
C#CCN(c1nc(C)cc(C)n1)c1ccc(C(C)C)cc1Br [compound 34, N-(2-Bromo-4-(1-methylethyl)phenyl)-N-propargyl4,6-dimethyl-2-pyrimidinamine]
C=CCOC1CCN(c2cc(C)nc(N(CC)c3ccc(C(C)C)cc3Br)n2)CC1 [compound 37]
CCN(c1nc(C)cc(N(C)CCO)n1)c1ccc(C(C)C)cc1Br [compound 50, N-(2-Bromo-4-(1-methylethyl)phenyl)-N-ethyl-4-methyl-6-(N-methyl-2-hydroxyethlamino)-2-pyrimidinamine]
CCN(c1nc(C)cc(C)n1)c1ccc(OC(C)C)cc1Br [compound 57, N-(2-Bromo-4-(isopropoxy)phenyl)-N-ethyl-4,6dimethyl-2-pymidinamine]
CCN(c1nc(C)cc(C(=O)N2CCOCC2)n1)c1ccc(C(C)C)cc1Br [compound 58, N-(2-bromo-4-(1-methylethyl)phenyl)-N-ethyl-4-methyl-6-(4-morpholinylcarbonyl)-2-pyrimidinamine]
CCN(c1nc(C)cc(N2CCSCC2)n1)c1ccc(C(C)C)cc1I [compound 73, N-ethyl-N-(2-iodo4-(1-methylethyl)phenyl)4-thiomorpholino-6-methyl-2-pyrimidinamine]
CCN(c1nc(C)nc(N2CCOCC2)n1)c1ccc(C(C)C)cc1Br [compound 134, N-[2-bromo-4-(1-methylethyl)phenyl]-N-ethyl-4-methyl-6-(4-morpholinyl)-1,3,5-triazin-2-amine]
CCN(c1nc(C)nc(N2CCSCC2)n1)c1ccc(C(C)C)cc1I [compound 135]
CCN(c1nc(C)nc(N2CCOCC2)n1)c1ccc(C(C)C)cc1I [compound 136]
CCN(c1nc(C)nc(N2CCCCC2)n1)c1ccc(C(C)C)cc1I [compound 137]
CCN(c1nc(C)cc(SC)n1)c1ccc(C(C)C)cc1Br [compound 140, N-(2-bromo-4-(1-methylethyl)phenyl)-N-ethyl-4-methyl-6-(thiomethyl)-2-pyrimidinamine]
CCN(c1nc(C)cc(OCc2ccccc2)n1)c1ccc(C(C)C)cc1Br [compound 149]
CCN(c1nc(C)cc(OCCCSC)n1)c1ccc(C(C)C)cc1Br [compound 150]
CCN(c1nc(C)cc(Cl)n1)c1ccc(C(C)C)cc1Br [compound 154]
CCN(c1nc(C)cc(N)n1)c1ccc(C(C)C)cc1Br [compound 155]
CCN(c1nc(C)cc(OCCCS(C)(=O)=O)n1)c1ccc(C(C)C)cc1Br [compound 156]
CCN(c1nc(C)cc(S(C)(=O)=O)n1)c1ccc(C(C)C)cc1Br [compound 159, N-(2-bromo-4-(1-methylethyl)phenyl)-N-ethyl-4-methyl-6-(thiomethyl)-2-pyrimidinamine, dioxide]
CCN(c1nc(C)cc([S+](C)[O-])n1)c1ccc(C(C)C)cc1Br (stereo not drawn) [compound 160, N-(2-bromo-4-(1-methylethyl)phenyl)-N-ethyl-4-methyl-6-(thiomethyl)-2-pyrimidinamine, S-oxide]

Ki, 2000 to 10000 nM:
CCN(c1nccc(C)n1)c1ccc(C(C)C)cc1Br [compound 49, N-(2-Bromo-4-(1-methylethyl)phenyl)-N-ethyl-4-methyl-2-pymidinamine]
Cc1cc(C)nc(N(C)c2ccc(I)cc2)n1 [compound 52]
Cc1cc(C)nc(N(C)c2ccccc2I)n1 [compound 53]
Cc1cc(C)nc(N(C)c2ccccc2C(F)(F)F)n1 [compound 54]
Cc1cc(C)nc(N(C)c2ccc(C(C)C)cc2)n1 [compound 66]
CCN(c1nc(C)cc(NN)n1)c1ccc(C(C)C)cc1Br [compound 146]

Reference: patent publication US6342503B1, “1N-alkyl-n-arylpyrimidinamines and derivatives thereof” (DuPont Pharmaceuticals Company, priority 1993, dated 2002)
